Source: article PMC6934184, “Selective DNA-PKcs inhibition extends the therapeutic index of localized radiotherapy and chemotherapy” (The Journal of Clinical Investigation, 2019)

Molecular target: T1, CDK1/cyclin B (Homo sapiens, UniProt P06493)
T1 construct: purchased Thermo Fisher Scientific (Life Technologies) SelectScreen
Experiment: SelectScreen Z'LYTE
Type: biochemical
Method in brief: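 Compound tested in SelectScreen activity assays, Z'LYTE for CSF1R, CDK1/cyclin B and MAP2K6 and Adapta for CAMK1. ATP for CAMK1 was listed as 10, and Km app was used for CSF1R. Results are expressed in percent.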

T1 sequence (P06493 whole entry): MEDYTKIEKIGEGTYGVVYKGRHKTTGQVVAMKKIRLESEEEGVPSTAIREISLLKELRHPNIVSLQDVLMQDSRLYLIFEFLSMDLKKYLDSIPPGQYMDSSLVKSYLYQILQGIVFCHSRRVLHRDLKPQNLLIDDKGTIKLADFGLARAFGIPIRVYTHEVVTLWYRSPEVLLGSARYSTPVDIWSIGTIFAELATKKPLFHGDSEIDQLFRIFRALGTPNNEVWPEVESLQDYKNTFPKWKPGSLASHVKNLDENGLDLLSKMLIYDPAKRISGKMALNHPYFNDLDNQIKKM
T1 sequence (P14635 whole entry partner): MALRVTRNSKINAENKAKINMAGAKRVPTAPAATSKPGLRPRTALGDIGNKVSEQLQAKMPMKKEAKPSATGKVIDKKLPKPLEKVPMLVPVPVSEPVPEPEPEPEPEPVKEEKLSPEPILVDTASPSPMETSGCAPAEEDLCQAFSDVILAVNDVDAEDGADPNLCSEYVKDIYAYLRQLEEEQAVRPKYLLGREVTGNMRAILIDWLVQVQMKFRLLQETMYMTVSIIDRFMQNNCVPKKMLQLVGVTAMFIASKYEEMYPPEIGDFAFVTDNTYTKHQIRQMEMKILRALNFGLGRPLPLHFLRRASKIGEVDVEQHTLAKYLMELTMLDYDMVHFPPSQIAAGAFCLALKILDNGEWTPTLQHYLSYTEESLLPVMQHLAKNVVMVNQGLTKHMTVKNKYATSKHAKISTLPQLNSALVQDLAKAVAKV

SMILES: CN(C(=O)CN1CCOCC1)c1ccc2sc3c(-c4cccc5c(=O)cc(N6CC7CCC(C6)O7)oc45)cccc3c2c1 [NU5455]
- inhibition at 1 µM: 1.6%
